We go through five compounds from US10168342B2, “Lipid probes and uses thereof” (THE SCRIPPS RESEARCH INSTITUTE, priority 2015, dated 2019).

Like-named read-outs stand apart in the source and are kept apart here.

The target of assay [1] is T1, AEA-DA lipid probe targets in Neuro2a cells (Mus musculus, UniProt O88531).
T1 sequence (O88531 28-306): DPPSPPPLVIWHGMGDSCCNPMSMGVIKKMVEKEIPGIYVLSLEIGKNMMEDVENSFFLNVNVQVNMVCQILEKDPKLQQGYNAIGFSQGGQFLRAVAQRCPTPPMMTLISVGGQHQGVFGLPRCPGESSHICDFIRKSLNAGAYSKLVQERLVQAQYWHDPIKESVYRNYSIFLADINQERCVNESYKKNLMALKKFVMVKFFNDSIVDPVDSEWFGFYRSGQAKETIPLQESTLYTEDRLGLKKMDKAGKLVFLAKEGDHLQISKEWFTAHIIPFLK

The target in assay [2] is T2, AEA-DA lipid probe targets in Neuro2a cells (Mus musculus, UniProt Q61207).
T2 sequence (Q61207 60-557): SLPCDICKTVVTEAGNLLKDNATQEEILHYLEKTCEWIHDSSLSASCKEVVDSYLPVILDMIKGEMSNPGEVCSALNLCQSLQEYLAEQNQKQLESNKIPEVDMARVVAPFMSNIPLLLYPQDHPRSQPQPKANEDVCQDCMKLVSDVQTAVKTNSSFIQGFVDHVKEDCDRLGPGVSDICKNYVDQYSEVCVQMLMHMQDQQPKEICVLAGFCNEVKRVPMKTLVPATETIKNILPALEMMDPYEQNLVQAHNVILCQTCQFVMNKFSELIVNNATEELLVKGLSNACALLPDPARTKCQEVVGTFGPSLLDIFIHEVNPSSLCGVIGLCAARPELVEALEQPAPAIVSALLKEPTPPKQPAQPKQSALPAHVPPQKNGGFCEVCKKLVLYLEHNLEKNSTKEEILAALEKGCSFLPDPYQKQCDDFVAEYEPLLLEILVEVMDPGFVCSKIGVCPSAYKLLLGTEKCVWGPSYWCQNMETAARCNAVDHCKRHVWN
Particulars: for SILAC ratio, PSAP (P07602): Neuro2a cells, AEA-DA probe.

Assay [3] addresses AEA-DA lipid probe targets in Neuro2a cells (Mus musculus, UniProt P29391).
Assay [4] has as its target T3, AEA-DA lipid probe targets in Neuro2a cells (Mus musculus, UniProt Q91WS0).
T3 sequence (Q91WS0 1-108): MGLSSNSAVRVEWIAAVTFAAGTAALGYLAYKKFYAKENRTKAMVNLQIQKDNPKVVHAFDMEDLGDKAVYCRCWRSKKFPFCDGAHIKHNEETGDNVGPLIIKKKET

The target of assay [5] is AEA-DA lipid probe targets in Neuro2a cells (Mus musculus, UniProt P08113).
AEA-DA lipid probe targets in Neuro2a cells (Mus musculus, UniProt P08113), sequence (P08113 22-802): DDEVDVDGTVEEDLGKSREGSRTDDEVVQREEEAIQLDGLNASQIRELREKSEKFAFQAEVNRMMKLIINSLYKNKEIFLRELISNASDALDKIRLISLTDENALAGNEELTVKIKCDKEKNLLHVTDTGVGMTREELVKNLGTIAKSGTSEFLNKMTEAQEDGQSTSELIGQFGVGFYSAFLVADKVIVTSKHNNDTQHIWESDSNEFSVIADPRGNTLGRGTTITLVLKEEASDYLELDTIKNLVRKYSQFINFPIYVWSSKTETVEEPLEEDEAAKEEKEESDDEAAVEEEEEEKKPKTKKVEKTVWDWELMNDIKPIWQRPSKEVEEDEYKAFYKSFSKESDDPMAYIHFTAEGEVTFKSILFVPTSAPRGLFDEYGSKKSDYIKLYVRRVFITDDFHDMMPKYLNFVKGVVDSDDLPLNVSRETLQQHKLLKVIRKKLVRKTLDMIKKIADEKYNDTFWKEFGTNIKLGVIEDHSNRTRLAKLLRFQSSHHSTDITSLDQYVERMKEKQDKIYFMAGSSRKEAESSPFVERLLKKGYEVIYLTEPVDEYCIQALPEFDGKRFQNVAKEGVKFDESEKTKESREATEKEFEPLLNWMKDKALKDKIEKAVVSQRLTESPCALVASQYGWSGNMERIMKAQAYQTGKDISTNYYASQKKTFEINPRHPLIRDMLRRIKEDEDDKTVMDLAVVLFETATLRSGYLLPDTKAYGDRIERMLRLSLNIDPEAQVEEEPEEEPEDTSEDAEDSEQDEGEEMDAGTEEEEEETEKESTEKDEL
The target of assay [6] is T4, AEA-DA lipid probe targets in Neuro2a cells (Mus musculus, UniProt P62492).
T4 sequence (P62492 1-216): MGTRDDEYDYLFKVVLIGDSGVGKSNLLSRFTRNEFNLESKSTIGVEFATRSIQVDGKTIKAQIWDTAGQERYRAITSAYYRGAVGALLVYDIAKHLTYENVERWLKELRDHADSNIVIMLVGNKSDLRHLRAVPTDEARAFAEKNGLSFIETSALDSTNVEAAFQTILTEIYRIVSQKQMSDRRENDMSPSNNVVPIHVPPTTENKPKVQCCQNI

Assay [7] has as its target T5, AEA-DA lipid probe targets in Neuro2a cells (Mus musculus, UniProt Q8BJ71).
T5 sequence (Q8BJ71 1-819): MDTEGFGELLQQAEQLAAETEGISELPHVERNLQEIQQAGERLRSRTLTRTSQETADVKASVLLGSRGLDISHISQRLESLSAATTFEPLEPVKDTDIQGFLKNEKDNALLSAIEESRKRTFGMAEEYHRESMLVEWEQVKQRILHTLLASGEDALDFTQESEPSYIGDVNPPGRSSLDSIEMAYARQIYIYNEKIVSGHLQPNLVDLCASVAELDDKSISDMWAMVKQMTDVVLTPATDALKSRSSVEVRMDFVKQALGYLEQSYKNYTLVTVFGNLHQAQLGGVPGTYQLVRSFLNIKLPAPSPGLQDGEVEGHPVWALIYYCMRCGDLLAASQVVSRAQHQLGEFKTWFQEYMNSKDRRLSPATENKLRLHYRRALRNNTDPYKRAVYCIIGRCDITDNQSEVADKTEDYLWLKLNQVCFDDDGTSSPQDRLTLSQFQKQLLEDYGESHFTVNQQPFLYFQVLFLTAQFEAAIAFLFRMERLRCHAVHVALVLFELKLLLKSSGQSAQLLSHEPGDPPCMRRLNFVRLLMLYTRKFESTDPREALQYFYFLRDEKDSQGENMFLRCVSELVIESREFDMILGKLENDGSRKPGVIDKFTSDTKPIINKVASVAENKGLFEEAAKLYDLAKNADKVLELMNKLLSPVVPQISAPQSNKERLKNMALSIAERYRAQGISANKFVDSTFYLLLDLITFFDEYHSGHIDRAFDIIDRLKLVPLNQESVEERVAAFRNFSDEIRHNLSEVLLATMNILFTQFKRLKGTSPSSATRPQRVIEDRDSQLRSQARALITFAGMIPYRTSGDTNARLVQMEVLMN

The target in assay [8] is T6, AEA-DA lipid probe targets in Neuro2a cells (Mus musculus, UniProt Q9WTQ8).
T6 sequence (Q9WTQ8 1-209): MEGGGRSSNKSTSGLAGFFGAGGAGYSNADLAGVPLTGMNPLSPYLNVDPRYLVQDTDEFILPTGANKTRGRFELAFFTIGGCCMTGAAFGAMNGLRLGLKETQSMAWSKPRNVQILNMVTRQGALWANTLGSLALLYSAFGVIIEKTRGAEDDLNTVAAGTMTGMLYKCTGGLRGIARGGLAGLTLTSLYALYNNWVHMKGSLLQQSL

AEA-DA lipid probe targets in Neuro2a cells (Mus musculus, UniProt P29391), sequence (P29391 whole entry): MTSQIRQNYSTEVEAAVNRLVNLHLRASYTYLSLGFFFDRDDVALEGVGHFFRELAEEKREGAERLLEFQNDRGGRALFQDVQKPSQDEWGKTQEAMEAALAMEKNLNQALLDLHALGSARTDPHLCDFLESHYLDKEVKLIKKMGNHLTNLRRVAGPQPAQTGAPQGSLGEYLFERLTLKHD

`CCCCC/C=C\C/C=C\C/C=C\C/C=C\CCCC(=O)NCCO` [AEA, anandamide, reference compound]: the “SILAC ratio Ppt1” value in assay [1] (competitor 200 μM) is reported as 1.1. In assay [2] (competitor 200 μM), the “SILAC ratio, PSAP (P07602)” value was determined as 1.4 and the “SILAC ratio Psap” value is recorded as 1.4. Besides, the “SILAC ratio Ftl1” value in assay [3] (competitor 200 μM) was found to be 1.6. Further, the “SILAC ratio Cisd1” value in assay [4] (competitor 200 μM) was 1.6. The “SILAC ratio Hsp90b1” value in assay [5] (competitor 200 μM) is on record as 1.1. The “SILAC ratio, Rab11a” value in assay [6] (competitor 200 μM) came to 1.6. Besides, the “SILAC ratio Nup93” value in assay [7] (competitor 200 μM) turned out to be 1.2. For the same compound, the “SILAC ratio, Timm23” value in assay [8] (competitor 200 μM) was 1.8.
In the case of `C=CCN(C)CCCCCCOc1ccc(C(=O)c2ccc(Br)cc2)c(F)c1` [Ro 48-8071, reference compound], the “SILAC ratio Ppt1” value in assay [1] (competitor 25 μM) is 1.6. For the same compound, in assay [2] (competitor 25 μM), the “SILAC ratio, PSAP (P07602)” value came to 1.0 and the “SILAC ratio Psap” value is listed as 1.0. Also, the “SILAC ratio Ftl1” value in assay [3] (competitor 25 μM) was found to be 0.4. The “SILAC ratio Cisd1” value in assay [4] (competitor 25 μM) is 1.1. For the same compound, the “SILAC ratio Hsp90b1” value in assay [5] (competitor 25 μM) was found to be 0.9. The “SILAC ratio, Rab11a” value in assay [6] (competitor 25 μM) came out at 1.3. Further, the “SILAC ratio Nup93” value in assay [7] (competitor 25 μM) was 0.9. Moreover, in assay [8] (competitor 25 μM), the “SILAC ratio, Timm23” value is 1.0.
With `CN1CCN(C(=O)c2c(-c3ccccc3)c3cc([N+](=O)[O-])ccc3n2C)CC1` [KML110, (1-Methyl-5-nitro-3-phenyl-1H-indol-2-yl)(4-methylpiperazin-1-yl)methanone], in assay [1] (competitor 25 μM), the “SILAC ratio Ppt1” value was 1.2. Also, the “SILAC ratio Psap” value in assay [2] (competitor 25 μM) stood at 1.3. In addition, the “SILAC ratio Ftl1” value in assay [3] (competitor 25 μM) is 0.9. In assay [4] (competitor 25 μM), the “SILAC ratio Cisd1” value is reported as 1.6. Besides, in assay [5] (competitor 25 μM), the “SILAC ratio Hsp90b1” value stood at 1.4. The “SILAC ratio, Rab11a” value in assay [6] (competitor 25 μM) was 1.6. The “SILAC ratio Nup93” value in assay [7] (competitor 25 μM) was 1.4. Besides, the “SILAC ratio, Timm23” value in assay [8] (competitor 25 μM) came out at 1.3.
For `O=C(/C=C/c1cccnc1)NCCCCC1CCN(C(=O)c2ccccc2)CC1` [FK-866, reference compound], the “SILAC ratio Ppt1” value in assay [1] (competitor 25 μM) was 0.8. Further, in assay [2] (competitor 25 μM), the “SILAC ratio, PSAP (P07602)” value came out at 1.0 and the “SILAC ratio Psap” value came to 1.0. Moreover, the “SILAC ratio Ftl1” value in assay [3] (competitor 25 μM) is 1.6. For the same compound, in assay [4] (competitor 25 μM), the “SILAC ratio Cisd1” value turned out to be 1.1. Besides, in assay [5] (competitor 25 μM), the “SILAC ratio Hsp90b1” value stood at 1.2. The “SILAC ratio, Rab11a” value in assay [6] (competitor 25 μM) is on record as 1.2. Besides, in assay [7] (competitor 25 μM), the “SILAC ratio Nup93” value is on record as 1.2. Further, in assay [8] (competitor 25 μM), the “SILAC ratio, Timm23” value was 1.1.
As for `CN1CCN(C(=O)c2[nH]c3ccc([N+](=O)[O-])cc3c2-c2ccccc2)CC1` [MJN228, (4-Methylpiperazin-1-yl)(5-nitro-3-phenyl-1H-indol-2-yl)methanone], the “SILAC ratio Ppt1” value was determined as 1.5 in assay [1] (competitor 10 μM), 1.5 in assay [1] (competitor 25 μM), 2.1 in assay [1] (competitor 50 μM) and 4.3 in assay [1] (competitor 100 μM). The “SILAC ratio, PSAP (P07602)” value in assay [2] (competitor 25 μM) was 1.4. Further, the “SILAC ratio Psap” value in assay [2] (competitor 10 μM) is 1.1; in assay [2] (competitor 25 μM), 1.4; in assay [2] (competitor 50 μM), 1.4; in assay [2] (competitor 100 μM), 1.6. Moreover, in assay [3] (competitor 100 μM), the “SILAC ratio Ftl1” value worked out at 1.0. For the same compound, the “SILAC ratio Cisd1” value in assay [4] (competitor 10 μM) stood at 1.3; in assay [4] (competitor 25 μM), 1.5; in assay [4] (competitor 50 μM), 1.4; in assay [4] (competitor 100 μM), 2.4. Moreover, the “SILAC ratio Hsp90b1” value in assay [5] (competitor 10 μM) amounted to 1.3; in assay [5] (competitor 25 μM) it was 1.3; in assay [5] (competitor 50 μM), 1.5; in assay [5] (competitor 100 μM), 1.4. Besides, the “SILAC ratio, Rab11a” value in assay [6] (competitor 10 μM) is given as 1.2; in assay [6] (competitor 25 μM), 1.6; in assay [6] (competitor 50 μM), 1.9; in assay [6] (competitor 100 μM), 2.4. Besides, the “SILAC ratio Nup93” value in assay [7] (competitor 10 μM) was found to be 0.9; in assay [7] (competitor 25 μM), 1.1; in assay [7] (competitor 50 μM), 1.0; in assay [7] (competitor 100 μM) it was 1.1. For the same compound, the “SILAC ratio, Timm23” value was found to be 1.0 in assay [8] (competitor 10 μM), 1.2 in assay [8] (competitor 25 μM), 1.3 in assay [8] (competitor 50 μM) and 1.5 in assay [8] (competitor 100 μM).
